Inconclusive results and toxic doses are left out. Rule as the data show it: active = T/C of 150% or more; inactive = T/C below 125%.
Tested on: L1210 leukemia ip in BDF1 mice, survival T/C
Assay: NCI In Vivo Anticancer Drug Screen. Data for tumor model L1210 Leukemia (intraperitoneal) in B6D2F1 (BDF1) mice
Conditions: endpoint: mean survival time, higher = longer survival
Procedure, shortened: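 Each compound was tested against a transplantable tumor grown in mice. The endpoint was survival, with treated animals benchmarked against vehicle controls as a simple ratio.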

[1] = dose: 100.0 mg/kg/injection, schedule: Q01DX009 (ip), vehicle: Klucel (hydroxypropylcellulose) (HPC)
[2] = dose: 100.0 mg/kg/injection, schedule: Q04DX003 (ip), vehicle: Klucel (hydroxypropylcellulose) (HPC)
[3] = dose: 200.0 mg/kg/injection, schedule: Q01DX009 (ip), vehicle: Klucel (hydroxypropylcellulose) (HPC)
[4] = dose: 200.0 mg/kg/injection, schedule: Q04DX003 (ip), vehicle: Klucel (hydroxypropylcellulose) (HPC)
[5] = dose: 400.0 mg/kg/injection, schedule: Q01DX009 (ip), vehicle: Klucel (hydroxypropylcellulose) (HPC)
[6] = dose: 400.0 mg/kg/injection, schedule: Q04DX003 (ip), vehicle: Klucel (hydroxypropylcellulose) (HPC)
[7] = dose: 100.0 mg/kg/injection, schedule: Q04DX002 (ip), vehicle: Klucel (hydroxypropylcellulose) (HPC)
[8] = dose: 200.0 mg/kg/injection, schedule: Q04DX002 (ip), vehicle: Klucel (hydroxypropylcellulose) (HPC)
[9] = dose: 100.0 mg/kg/injection, schedule: Q01DX001 (ip), vehicle: saline
[10] = dose: 200.0 mg/kg/injection, schedule: Q01DX001 (ip), vehicle: saline
[11] = dose: 400.0 mg/kg/injection, schedule: Q01DX001 (ip), vehicle: saline
[12] = dose: 100.0 mg/kg/injection, schedule: Q04DX003 (ip), vehicle: saline with Tween-80
[13] = dose: 100.0 mg/kg/injection, schedule: Q04DX003 (ip), vehicle: saline
[14] = dose: 200.0 mg/kg/injection, schedule: Q04DX003 (ip), vehicle: saline
[15] = dose: 400.0 mg/kg/injection, schedule: Q04DX003 (ip), vehicle: saline
[16] = dose: 100.0 mg/kg/injection, schedule: Q01DX001 (ip), vehicle: carboxymethylcellulose (CMC)
[17] = dose: 200.0 mg/kg/injection, schedule: Q01DX001 (ip), vehicle: carboxymethylcellulose (CMC)
[18] = dose: 400.0 mg/kg/injection, schedule: Q01DX001 (ip), vehicle: carboxymethylcellulose (CMC)
[19] = dose: 200.0 mg/kg/injection, schedule: Q04DX003 (ip), vehicle: saline with Tween-80
[20] = dose: 400.0 mg/kg/injection, schedule: Q04DX003 (ip), vehicle: saline with Tween-80
[21] = dose: 100.0 mg/kg/injection, schedule: Q01DX009 (ip), vehicle: saline with Tween-80
[22] = dose: 200.0 mg/kg/injection, schedule: Q01DX001 (ip), vehicle: saline with Tween-80
[23] = dose: 400.0 mg/kg/injection, schedule: Q01DX009 (ip), vehicle: saline with Tween-80
[24] = dose: 50.0 mg/kg/injection, schedule: Q01DX001 (ip), vehicle: carboxymethylcellulose (CMC)

Measured: T/C

CCOC(=O)Cc1c(C)[nH]c2c(C)ccc(C)c12
inactive: dose: 5.0 mg/kg/injection, schedule: Q01DX001 (ip), vehicle: other 94 % of control | dose: 10.0 mg/kg/injection, schedule: Q01DX001 (ip), vehicle: other 91 % of control | dose: 20.0 mg/kg/injection, schedule: Q01DX001 (ip), vehicle: other 105 % of control | dose: 40.0 mg/kg/injection, schedule: Q01DX001 (ip), vehicle: other 96 % of control | dose: 80.0 mg/kg/injection, schedule: Q01DX001 (ip), vehicle: other 100 % of control

CC1(C)C2CCC1C(CO)C2 (stereo unspecified)
inactive: [1] 94 % of control | [2] 96 % of control | [3] 104 % of control | [4] 107 % of control | [5] 100 % of control | [6] 102 % of control

OC1C2CC3CC(C2)CC1C3 (stereo unspecified)
inactive: [7] 102 % of control | [8] 98 % of control | dose: 400.0 mg/kg/injection, schedule: Q04DX002 (ip), vehicle: Klucel (hydroxypropylcellulose) (HPC) 94 % of control

CN1CCCCC1CCN1c2ccccc2Sc2ccc(Br)cc21 (stereo unspecified)
inactive: dose: 3.12 mg/kg/injection, schedule: Q01DX009 (ip), vehicle: saline 105 % of control | dose: 6.25 mg/kg/injection, schedule: Q01DX009 (ip), vehicle: saline 100 % of control | dose: 12.5 mg/kg/injection, schedule: Q01DX009 (ip), vehicle: saline 101 % of control

Cc1cc(N(CCCCl)CCCCl)ccc1C=Nc1cccc(Cl)c1
inactive: [2] 101 % of control | [4] 101 % of control | [6] 96 % of control

Cn1nnnc1CCN(N)CCN(N)CCc1nnnn1C
inactive: [9] 103 % of control | [10] 92 % of control | [11] 95 % of control

CN(C)CCCN1c2ccc(O)cc2Sc2ccc(Cl)cc21
inactive: dose: 3.1 mg/kg/injection, schedule: Q01DX009 (ip), vehicle: other 90 % of control | dose: 6.2 mg/kg/injection, schedule: Q01DX009 (ip), vehicle: other 94 % of control | dose: 12.5 mg/kg/injection, schedule: Q01DX009 (ip), vehicle: other 94 % of control | dose: 25.0 mg/kg/injection, schedule: Q01DX009 (ip), vehicle: other 97 % of control | dose: 50.0 mg/kg/injection, schedule: Q04DX003 (ip), vehicle: saline with Tween-80 103 % of control | [12] 103 % of control

O=S1(=O)Cc2ccccc2-c2ccccc2C1Cl (stereo unspecified)
inactive: dose: 50.0 mg/kg/injection, schedule: Q04DX002 (ip), vehicle: Klucel (hydroxypropylcellulose) (HPC) 100 % of control | [1] 98 % of control | [7] 100 % of control | [3] 100 % of control | [8] 97 % of control | [5] 96 % of control

NC(=O)Nc1cc(N)cc(NC(N)=O)c1
inactive: [13] 96 % of control | [14] 107 % of control | [15] 106 % of control

Cc1cc(N(CCCl)CCCl)ccc1C=Nc1cc(Br)c(O)c(Br)c1
inactive: [16] 96 % of control | [17] 94 % of control | [18] 102 % of control

C/C(=N/OC(=O)N(C)C)c1ccc([N+](=O)[O-])cc1
inactive: [9] 104 % of control | [10] 104 % of control | [11] 104 % of control

O=C1c2ccccc2C(=O)c2c(O)c(Cc3ccccc3)cc(O)c21
inactive: [13] 105 % of control | [14] 97 % of control | [15] 97 % of control

CCOC(=O)C(C#N)(C1C=CCC1)C1C=CCC1 (stereo unspecified)
inactive: [12] 100 % of control | [19] 100 % of control | [20] 100 % of control

CC1CCC2(NC1)OC1CC3C4CCC5CC(O)CCC5(C)C4CCC3(C)C1C2C (stereo unspecified)
inactive: dose: 100.0 mg/kg/injection, schedule: Q01DX001 (ip), vehicle: other 94 % of control | dose: 200.0 mg/kg/injection, schedule: Q01DX001 (ip), vehicle: other 91 % of control | dose: 400.0 mg/kg/injection, schedule: Q01DX001 (ip), vehicle: other 94 % of control

OCCC1COc2ccccc2O1 (stereo unspecified)
inactive: [16] 97 % of control | [17] 95 % of control | [18] 103 % of control

S=C(N/N=C/C(c1ccccc1)c1ccccc1)Nc1ccccc1
inactive: dose: 100.0 mg/kg/injection, schedule: Q01DX001 (ip), vehicle: saline with Tween-80 95 % of control | [21] 86 % of control | [22] 102 % of control | dose: 400.0 mg/kg/injection, schedule: Q01DX001 (ip), vehicle: saline with Tween-80 98 % of control | [23] 86 % of control

OCC1(c2ccccc2)CCCC1(CO)c1ccccc1 (stereo unspecified)
inactive: dose: 15.0 mg/kg/injection, schedule: Q01DX001 (ip), vehicle: carboxymethylcellulose (CMC) 95 % of control | dose: 30.0 mg/kg/injection, schedule: Q01DX001 (ip), vehicle: carboxymethylcellulose (CMC) 93 % of control | dose: 60.0 mg/kg/injection, schedule: Q01DX001 (ip), vehicle: carboxymethylcellulose (CMC) 91 % of control

CCC1(O)C(=O)OCc2c1c(Br)c(-c1ccccc1)n(C)c2=O (stereo unspecified)
inactive: dose: 25.0 mg/kg/injection, schedule: Q01DX001 (ip), vehicle: saline with Tween-80 110 % of control | dose: 50.0 mg/kg/injection, schedule: Q01DX001 (ip), vehicle: saline with Tween-80 102 % of control | [22] 121 % of control

O=C1C2CCCC3CCCC(C(=O)N1O)C32 (stereo unspecified)
inactive: dose: 100.0 mg/kg/injection, schedule: Q04DX002 (ip), vehicle: saline with Tween-80 104 % of control | dose: 200.0 mg/kg/injection, schedule: Q04DX002 (ip), vehicle: saline with Tween-80 99 % of control | dose: 400.0 mg/kg/injection, schedule: Q04DX002 (ip), vehicle: saline with Tween-80 86 % of control

Cc1cccc(C)c1NC(=O)C(C)C
inactive: [21] 94 % of control | [12] 98 % of control | dose: 200.0 mg/kg/injection, schedule: Q01DX009 (ip), vehicle: saline with Tween-80 95 % of control | [19] 98 % of control | [23] 90 % of control | [20] 96 % of control

CSc1ccc(/C=C/c2ccc([N+](=O)[O-])cc2)cc1
inactive: [1] 97 % of control | [2] 91 % of control | [3] 88 % of control | [4] 93 % of control | [5] 92 % of control | [6] 88 % of control

Fc1ccc(NC(=S)Nc2cc(Cl)cc(Cl)c2)cc1
inactive: dose: 7.5 mg/kg/injection, schedule: Q01DX Z (ip), vehicle: carboxymethylcellulose (CMC) 96 % of control | dose: 15.0 mg/kg/injection, schedule: Q01DX Z (ip), vehicle: carboxymethylcellulose (CMC) 93 % of control | dose: 30.0 mg/kg/injection, schedule: Q01DX Z (ip), vehicle: carboxymethylcellulose (CMC) 100 % of control | [24] 98 % of control | dose: 60.0 mg/kg/injection, schedule: Q01DX Z (ip), vehicle: carboxymethylcellulose (CMC) 87 % of control | dose: 75.0 mg/kg/injection, schedule: Q01DX Z (ip), vehicle: carboxymethylcellulose (CMC) 87 % of control | [16] 93 % of control | [17] 95 % of control

CC12CC(O)C3c4ccc(O)cc4CCC3C1CCC2=O (stereo unspecified)
inactive: [24] 106 % of control | [16] 98 % of control | [17] 104 % of control | [18] 104 % of control

Cc1ccc(C)c(NC(=O)Nc2ccc(S(N)(=O)=O)cc2)c1
inactive: [1] 91 % of control | [3] 92 % of control | [5] 96 % of control

CC(=O)c1cccc(NC(=O)N(C)Cc2ccccc2)c1
inactive: [1] 109 % of control | [3] 100 % of control | [5] 112 % of control

O=C(Nc1ccccc1F)C(Br)C(Br)c1ccccc1 (stereo unspecified)
inactive: [1] 92 % of control | [3] 100 % of control | [5] 96 % of control

CN1C(=O)OC2(CCN(CCCS(=O)(=O)c3ccc(F)cc3)CC2)C1=O
inactive: dose: 100.0 mg/kg/injection, schedule: Q01DX001 (ip), vehicle: Klucel (hydroxypropylcellulose) (HPC) 92 % of control | dose: 200.0 mg/kg/injection, schedule: Q01DX001 (ip), vehicle: Klucel (hydroxypropylcellulose) (HPC) 105 % of control | dose: 400.0 mg/kg/injection, schedule: Q01DX001 (ip), vehicle: Klucel (hydroxypropylcellulose) (HPC) 93 % of control

Source: PubChem BioAssay AID248 (DTP/NCI, 2004)
